The CheMixHub viscosity set

Assay: xn = mol fraction of the nth substance listed

O=CN1CCOCC1 + Cc1cccc(C)c1
viscosity [mPa·s]
Details	298.15 K	303.15 K	313.15 K	323.15 K
101 kPa, x2 = 0.1	5.508	4.826	3.793	3.081
101 kPa, x2 = 0.2	4.047	3.589	2.886	2.4
101 kPa, x2 = 0.3	3.049	2.741	2.257	1.905
101 kPa, x2 = 0.4	2.34	2.132	1.778	1.522
101 kPa, x2 = 0.5	1.792	1.646	1.381	1.192
101 kPa, x2 = 0.6	1.38	1.267	1.076	0.9311
101 kPa, x2 = 0.7	1.082	1.002	0.8623	0.7574
101 kPa, x2 = 0.8	0.8664	0.8124	0.708	0.6298
101 kPa, x2 = 0.9	0.7069	0.6603	0.586	0.5286
101.3 kPa, x2 = 0.03245	7.014	–	–	–
101.3 kPa, x2 = 0.06364	6.442	–	–	–
101.3 kPa, x2 = 0.09907	5.89	–	–	–
101.3 kPa, x2 = 0.1608	5.016	–	–	–
101.3 kPa, x2 = 0.2806	3.707	–	–	–
101.3 kPa, x2 = 0.3561	3.033	–	–	–
101.3 kPa, x2 = 0.4744	2.278	–	–	–
101.3 kPa, x2 = 0.5701	1.829	–	–	–
101.3 kPa, x2 = 0.6556	1.511	–	–	–
101.3 kPa, x2 = 0.6984	1.38	–	–	–
101.3 kPa, x2 = 0.7819	1.159	–	–	–
101.3 kPa, x2 = 0.876	0.961	–	–	–
101.3 kPa, x2 = 0.9337	0.875	–	–	–

O=CN1CCOCC1 + Cc1ccccc1
298.15 K, 101.3 kPa
Details	viscosity [mPa·s]
x2 = 0.01784	7.177
x2 = 0.06829	6.102
x2 = 0.1881	4.224
x2 = 0.2675	3.336
x2 = 0.3466	2.653
x2 = 0.4247	2.155
x2 = 0.5094	1.701
x2 = 0.5956	1.359
x2 = 0.6849	1.099
x2 = 0.7722	0.879
x2 = 0.8479	0.759
x2 = 0.9178	0.646

S=C=S + Cc1ccccc1
298.15 K, 101 kPa
Details	viscosity [mPa·s]
x1 = 0.1	0.5295
x1 = 0.2	0.5063
x1 = 0.3	0.4837
x1 = 0.4	0.462
x1 = 0.5	0.4412
x1 = 0.6	0.4217
x1 = 0.7	0.4035
x1 = 0.8	0.3868
x1 = 0.9	0.3718
x2 = 0.06082	0.37
x2 = 0.3361	0.417
x2 = 0.587	0.469
